Measured values from ChEMBL document CHEMBL4507290 (2021).

Key:
[1] = target: Mitogen-activated protein kinase kinase kinase 4 (Homo sapiens) (UniProt Q9Y6R4); details: Compound concentration 1000.0 nM
[2] = target: Ribosomal protein S6 kinase alpha-3 (Homo sapiens) (UniProt P51812); details: Compound concentration 1000.0 nM
[3] = target: Serine/threonine-protein kinase PknB (Mycobacterium tuberculosis) (UniProt P9WI81); details: Compound concentration 1000.0 nM
[4] = target: Epidermal growth factor receptor (Homo sapiens) (UniProt P00533); details: Compound concentration 1000.0 nM
[5] = target: STE20-like serine/threonine-protein kinase (Homo sapiens) (UniProt Q9H2G2); details: Compound concentration 1000.0 nM
[6] = target: Phosphatidylinositol 4,5-bisphosphate 3-kinase catalytic subunit gamma isoform (Homo sapiens) (UniProt P48736); details: Compound concentration 1000.0 nM
[7] = target: Serine/threonine-protein kinase PLK4 (Homo sapiens) (UniProt O00444); details: Compound concentration 1000.0 nM
[8] = target: Hormonally up-regulated neu tumor-associated kinase (Homo sapiens) (UniProt P57058); details: Compound concentration 1000.0 nM
Sequence of Hormonally up-regulated neu tumor-associated kinase (Homo sapiens) (P57058 whole entry): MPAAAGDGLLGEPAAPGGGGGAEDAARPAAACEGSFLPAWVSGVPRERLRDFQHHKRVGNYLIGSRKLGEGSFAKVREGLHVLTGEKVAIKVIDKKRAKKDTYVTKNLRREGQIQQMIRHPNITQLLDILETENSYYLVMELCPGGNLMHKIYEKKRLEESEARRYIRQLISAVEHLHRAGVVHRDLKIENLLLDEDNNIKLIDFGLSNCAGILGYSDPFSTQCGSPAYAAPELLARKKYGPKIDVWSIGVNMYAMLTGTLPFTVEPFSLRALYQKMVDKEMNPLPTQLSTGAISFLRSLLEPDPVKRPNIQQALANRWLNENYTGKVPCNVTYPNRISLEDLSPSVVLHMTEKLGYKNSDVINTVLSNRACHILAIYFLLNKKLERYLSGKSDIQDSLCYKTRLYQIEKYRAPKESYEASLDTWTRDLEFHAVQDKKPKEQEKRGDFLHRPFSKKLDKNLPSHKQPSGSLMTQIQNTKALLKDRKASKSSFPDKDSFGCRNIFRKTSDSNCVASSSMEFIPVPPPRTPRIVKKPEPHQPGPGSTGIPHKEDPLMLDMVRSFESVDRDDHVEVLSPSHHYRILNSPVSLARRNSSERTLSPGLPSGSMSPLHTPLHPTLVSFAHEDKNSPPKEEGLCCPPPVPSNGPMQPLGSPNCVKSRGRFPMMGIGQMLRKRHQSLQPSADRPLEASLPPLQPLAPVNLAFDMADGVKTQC

[9] = target: Megakaryocyte-associated tyrosine-protein kinase (Homo sapiens) (UniProt P42679); details: Compound concentration 1000.0 nM
[10] = target: Microtubule-associated serine/threonine-protein kinase 1 (Homo sapiens) (UniProt Q9Y2H9); details: Compound concentration 1000.0 nM
[11] = target: ALK tyrosine kinase receptor (Homo sapiens) (UniProt Q9UM73); details: Compound concentration 1000.0 nM
[12] = target: Phosphatidylinositol 5-phosphate 4-kinase type-2 beta (Homo sapiens) (UniProt P78356); details: Compound concentration 1000.0 nM
Sequence of Phosphatidylinositol 5-phosphate 4-kinase type-2 beta (Homo sapiens) (P78356 whole entry): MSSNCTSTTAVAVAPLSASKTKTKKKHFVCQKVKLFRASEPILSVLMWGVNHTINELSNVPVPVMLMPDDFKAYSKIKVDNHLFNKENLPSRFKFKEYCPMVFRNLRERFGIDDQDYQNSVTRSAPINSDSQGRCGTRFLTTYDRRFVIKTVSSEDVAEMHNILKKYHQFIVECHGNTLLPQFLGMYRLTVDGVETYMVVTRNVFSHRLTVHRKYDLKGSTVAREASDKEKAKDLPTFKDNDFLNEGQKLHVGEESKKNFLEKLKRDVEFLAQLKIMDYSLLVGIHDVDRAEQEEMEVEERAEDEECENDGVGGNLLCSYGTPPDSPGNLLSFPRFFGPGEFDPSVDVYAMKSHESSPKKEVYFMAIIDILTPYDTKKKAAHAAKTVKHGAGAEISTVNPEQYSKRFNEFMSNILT

[13] = target: Serine/threonine-protein kinase haspin (Homo sapiens) (UniProt Q8TF76); details: Compound concentration 1000.0 nM
[14] = target: TGF-beta receptor type-2 (Homo sapiens) (UniProt P37173); details: Compound concentration 1000.0 nM
[15] = target: Serine/threonine-protein kinase ULK2 (Homo sapiens) (UniProt Q8IYT8); details: Compound concentration 1000.0 nM
Sequence of Serine/threonine-protein kinase ULK2 (Homo sapiens) (Q8IYT8 whole entry): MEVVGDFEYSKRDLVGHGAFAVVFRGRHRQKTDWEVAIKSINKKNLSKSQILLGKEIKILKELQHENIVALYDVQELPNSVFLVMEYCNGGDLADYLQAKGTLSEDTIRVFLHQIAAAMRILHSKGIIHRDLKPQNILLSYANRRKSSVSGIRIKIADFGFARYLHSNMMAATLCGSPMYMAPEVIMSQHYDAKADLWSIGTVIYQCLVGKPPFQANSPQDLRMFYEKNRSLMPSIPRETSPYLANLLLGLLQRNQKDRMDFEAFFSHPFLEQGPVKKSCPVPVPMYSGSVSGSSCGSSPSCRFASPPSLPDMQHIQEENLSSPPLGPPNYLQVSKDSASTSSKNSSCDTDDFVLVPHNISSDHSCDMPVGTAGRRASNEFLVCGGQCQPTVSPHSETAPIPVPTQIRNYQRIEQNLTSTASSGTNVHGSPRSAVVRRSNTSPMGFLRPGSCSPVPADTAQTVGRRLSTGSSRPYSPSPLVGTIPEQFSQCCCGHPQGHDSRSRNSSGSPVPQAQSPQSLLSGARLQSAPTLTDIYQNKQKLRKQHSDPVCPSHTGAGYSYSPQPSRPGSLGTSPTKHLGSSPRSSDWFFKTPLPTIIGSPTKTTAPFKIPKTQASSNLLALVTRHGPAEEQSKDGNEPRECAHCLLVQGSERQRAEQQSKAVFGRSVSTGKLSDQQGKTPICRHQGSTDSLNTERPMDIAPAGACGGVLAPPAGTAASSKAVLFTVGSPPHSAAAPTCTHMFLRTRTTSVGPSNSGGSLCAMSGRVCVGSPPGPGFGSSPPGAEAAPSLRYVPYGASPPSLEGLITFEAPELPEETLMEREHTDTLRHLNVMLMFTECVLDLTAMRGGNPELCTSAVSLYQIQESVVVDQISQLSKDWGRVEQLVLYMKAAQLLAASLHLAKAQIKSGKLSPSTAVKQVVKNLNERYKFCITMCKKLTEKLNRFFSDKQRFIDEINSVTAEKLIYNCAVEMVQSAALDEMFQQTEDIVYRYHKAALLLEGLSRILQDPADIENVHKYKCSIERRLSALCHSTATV

[16] = target: Ephrin type-A receptor 2 (Homo sapiens) (UniProt P29317); details: Compound concentration 1000.0 nM
[17] = target: Serine/threonine-protein kinase PAK 1 (Homo sapiens) (UniProt Q13153); details: Compound concentration 1000.0 nM
[18] = target: Maternal embryonic leucine zipper kinase (Homo sapiens) (UniProt Q14680); details: Compound concentration 1000.0 nM
Sequence of Maternal embryonic leucine zipper kinase (Homo sapiens) (Q14680 whole entry, looked up): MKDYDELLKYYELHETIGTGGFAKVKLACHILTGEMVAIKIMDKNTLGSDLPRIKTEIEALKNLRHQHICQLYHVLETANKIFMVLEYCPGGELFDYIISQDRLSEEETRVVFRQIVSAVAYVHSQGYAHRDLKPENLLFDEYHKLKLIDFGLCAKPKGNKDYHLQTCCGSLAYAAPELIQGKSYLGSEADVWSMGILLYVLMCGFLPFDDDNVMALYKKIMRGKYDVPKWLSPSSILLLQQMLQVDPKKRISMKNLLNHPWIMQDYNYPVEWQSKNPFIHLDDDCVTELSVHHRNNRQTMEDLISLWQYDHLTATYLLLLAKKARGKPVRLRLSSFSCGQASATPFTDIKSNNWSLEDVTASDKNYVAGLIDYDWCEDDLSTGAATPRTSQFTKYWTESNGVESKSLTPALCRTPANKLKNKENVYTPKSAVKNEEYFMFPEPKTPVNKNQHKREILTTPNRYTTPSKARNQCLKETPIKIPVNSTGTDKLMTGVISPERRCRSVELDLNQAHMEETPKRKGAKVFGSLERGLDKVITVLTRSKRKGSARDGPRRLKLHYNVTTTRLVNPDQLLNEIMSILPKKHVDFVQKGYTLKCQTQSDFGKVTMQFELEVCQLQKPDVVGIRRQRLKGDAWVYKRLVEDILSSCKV

[19] = system: Receptor-type tyrosine-protein kinase FLT3 (Homo sapiens), P36888 [UNDEFINED MUTATION]; details: Compound concentration 1000.0 nM
[20] = target: D(1B) dopamine receptor (Homo sapiens) (UniProt P21918); details: Compound concentration 10.0 uM
[21] = system: Epidermal growth factor receptor (Homo sapiens), P00533 [L858R]; details: Compound concentration 1000.0 nM
[22] = target: D(1A) dopamine receptor (Homo sapiens) (UniProt P21728); details: Compound concentration 10.0 uM
[23] = target: SNF-related serine/threonine-protein kinase (Homo sapiens) (UniProt Q9NRH2); details: Compound concentration 1000.0 nM
[24] = target: LIM domain kinase 2 (Homo sapiens) (UniProt P53671); details: Compound concentration 1000.0 nM
[25] = target: 5-hydroxytryptamine receptor 2A (Homo sapiens) (UniProt P28223); details: Compound concentration 10.0 uM
[26] = target: Mitogen-activated protein kinase kinase kinase 1 (Homo sapiens) (UniProt Q13233); details: Compound concentration 1000.0 nM
[27] = target: Serine/threonine-protein kinase DCLK3 (Homo sapiens) (UniProt Q9C098); details: Compound concentration 1000.0 nM
[28] = target: Bone morphogenetic protein receptor type-1B (Homo sapiens) (UniProt O00238); details: Compound concentration 1000.0 nM
[29] = target: Serine/threonine-protein kinase MARK2 (Homo sapiens) (UniProt Q7KZI7); details: Compound concentration 1000.0 nM
[30] = target: Mitogen-activated protein kinase kinase kinase 10 (Homo sapiens) (UniProt Q02779); details: Compound concentration 1000.0 nM
[31] = target: Ephrin type-A receptor 1 (Homo sapiens) (UniProt P21709); details: Compound concentration 1000.0 nM
[32] = system: Receptor-type tyrosine-protein kinase FLT3 (Homo sapiens), P36888 [R834Q]; details: Compound concentration 1000.0 nM
[33] = target: Serine/threonine-protein kinase PAK 4 (Homo sapiens) (UniProt O96013); details: Compound concentration 1000.0 nM
[34] = target: SRSF protein kinase 3 (Homo sapiens) (UniProt Q9UPE1); details: Compound concentration 1000.0 nM
Sequence of SRSF protein kinase 3 (Homo sapiens) (Q9UPE1 whole entry): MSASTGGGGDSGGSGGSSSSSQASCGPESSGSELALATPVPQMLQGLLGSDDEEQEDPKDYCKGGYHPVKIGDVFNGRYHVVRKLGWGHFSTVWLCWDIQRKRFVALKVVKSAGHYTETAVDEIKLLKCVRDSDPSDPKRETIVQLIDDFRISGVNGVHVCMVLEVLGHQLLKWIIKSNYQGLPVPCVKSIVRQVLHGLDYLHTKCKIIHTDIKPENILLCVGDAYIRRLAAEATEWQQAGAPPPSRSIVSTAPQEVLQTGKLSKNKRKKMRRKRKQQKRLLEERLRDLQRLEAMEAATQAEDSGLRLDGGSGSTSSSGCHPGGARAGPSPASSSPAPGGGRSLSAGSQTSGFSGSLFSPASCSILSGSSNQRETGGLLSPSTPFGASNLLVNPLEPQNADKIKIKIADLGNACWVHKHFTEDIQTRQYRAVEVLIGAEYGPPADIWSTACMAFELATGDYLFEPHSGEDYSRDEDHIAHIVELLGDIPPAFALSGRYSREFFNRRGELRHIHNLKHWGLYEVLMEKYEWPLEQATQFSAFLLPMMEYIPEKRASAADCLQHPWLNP

[35] = target: Cyclin-dependent kinase-like 5 (Homo sapiens) (UniProt O76039); details: Compound concentration 1000.0 nM
[36] = target: Serine/threonine-protein kinase 32A (Homo sapiens) (UniProt Q8WU08); details: Compound concentration 1000.0 nM
[37] = system: Phosphatidylinositol 4,5-bisphosphate 3-kinase catalytic subunit alpha isoform (Homo sapiens), P42336 [Q546K]; details: Compound concentration 1000.0 nM
[38] = system: Receptor-type tyrosine-protein kinase FLT3 (Homo sapiens), P36888 [D835V]; details: Compound concentration 1000.0 nM
[39] = target: Myosin light chain kinase (Homo sapiens) (UniProt Q32MK0); details: Compound concentration 1000.0 nM
[40] = target: Dual specificity protein kinase TTK (Homo sapiens) (UniProt P33981); details: Compound concentration 1000.0 nM
Sequence of Dual specificity protein kinase TTK (Homo sapiens) (P33981 whole entry): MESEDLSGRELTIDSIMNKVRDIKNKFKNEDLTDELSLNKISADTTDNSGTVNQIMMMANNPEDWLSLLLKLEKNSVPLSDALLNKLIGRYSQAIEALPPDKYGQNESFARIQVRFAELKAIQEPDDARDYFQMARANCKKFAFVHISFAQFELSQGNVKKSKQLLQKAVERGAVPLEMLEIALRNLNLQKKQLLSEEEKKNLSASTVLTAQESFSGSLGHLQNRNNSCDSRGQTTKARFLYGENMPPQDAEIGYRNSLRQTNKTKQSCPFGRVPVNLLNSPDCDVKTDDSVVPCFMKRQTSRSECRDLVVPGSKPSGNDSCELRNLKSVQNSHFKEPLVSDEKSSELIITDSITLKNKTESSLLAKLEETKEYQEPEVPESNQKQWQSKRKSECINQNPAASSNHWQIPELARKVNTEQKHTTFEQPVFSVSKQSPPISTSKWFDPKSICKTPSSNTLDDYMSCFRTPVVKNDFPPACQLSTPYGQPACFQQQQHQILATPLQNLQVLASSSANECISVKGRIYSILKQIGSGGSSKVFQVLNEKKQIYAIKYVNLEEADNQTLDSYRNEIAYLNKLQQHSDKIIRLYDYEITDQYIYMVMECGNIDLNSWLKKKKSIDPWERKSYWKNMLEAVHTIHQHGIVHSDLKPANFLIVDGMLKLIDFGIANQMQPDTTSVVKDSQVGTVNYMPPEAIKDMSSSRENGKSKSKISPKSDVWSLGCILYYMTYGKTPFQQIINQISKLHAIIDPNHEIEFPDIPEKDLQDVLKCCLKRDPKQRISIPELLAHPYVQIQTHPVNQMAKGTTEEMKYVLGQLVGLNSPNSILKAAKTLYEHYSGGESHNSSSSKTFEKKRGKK

[41] = target: Serine/threonine-protein kinase 35 (Homo sapiens) (UniProt Q8TDR2); details: Compound concentration 1000.0 nM
[42] = system: Phosphatidylinositol 4,5-bisphosphate 3-kinase catalytic subunit alpha isoform (Homo sapiens), P42336 [I800L]; details: Compound concentration 1000.0 nM
[43] = target: Serine/threonine-protein kinase PAK 3 (Homo sapiens) (UniProt O75914); details: Compound concentration 1000.0 nM
Sequence of Serine/threonine-protein kinase PAK 3 (Homo sapiens) (O75914 whole entry, looked up, canonical isoform): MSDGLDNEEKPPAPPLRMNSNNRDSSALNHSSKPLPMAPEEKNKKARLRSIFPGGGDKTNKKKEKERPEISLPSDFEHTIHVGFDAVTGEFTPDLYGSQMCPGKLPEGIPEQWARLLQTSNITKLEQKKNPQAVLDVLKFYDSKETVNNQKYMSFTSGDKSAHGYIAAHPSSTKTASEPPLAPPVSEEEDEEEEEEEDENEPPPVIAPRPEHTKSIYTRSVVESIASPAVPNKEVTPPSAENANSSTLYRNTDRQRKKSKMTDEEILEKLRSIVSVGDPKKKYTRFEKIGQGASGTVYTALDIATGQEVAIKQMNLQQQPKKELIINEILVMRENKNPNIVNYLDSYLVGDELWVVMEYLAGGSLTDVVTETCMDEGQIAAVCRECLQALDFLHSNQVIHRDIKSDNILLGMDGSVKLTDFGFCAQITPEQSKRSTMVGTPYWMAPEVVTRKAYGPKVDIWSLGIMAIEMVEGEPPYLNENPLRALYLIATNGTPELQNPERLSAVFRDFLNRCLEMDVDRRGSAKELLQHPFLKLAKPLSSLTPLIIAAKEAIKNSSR

[44] = target: Phosphatidylinositol 4,5-bisphosphate 3-kinase catalytic subunit beta isoform (Homo sapiens) (UniProt P42338); details: Compound concentration 1000.0 nM
[45] = target: Receptor tyrosine-protein kinase erbB-3 (Homo sapiens) (UniProt P21860); details: Compound concentration 1000.0 nM

CN([C@@H]1CCc2c(CC(=O)O)c3cc(S(C)(=O)=O)ccc3n2C1)S(=O)(=O)c1ccc(F)cc1
inactive: residual activity [1] 79% | residual activity [2] 80% | residual activity [3] 100% | residual activity [4] 100% | residual activity [5] 100% | residual activity [6] 100% | residual activity [7] 100% | residual activity [8] 100% | residual activity [9] 100% | residual activity [10] 93% | residual activity [11] 80% | residual activity [12] 59% | residual activity [13] 83% | residual activity [14] 67% | residual activity [15] 100% | residual activity [16] 100% | residual activity [17] 95% | residual activity [18] 84% | residual activity [19] 82% | inhibition [20] -6.04% | residual activity [21] 91% | inhibition [22] -2.96% | residual activity [23] 100% | residual activity [24] 100% | inhibition [25] 7.27% | residual activity [26] 66% | residual activity [27] 71% | residual activity [28] 100% | residual activity [29] 100% | residual activity [30] 100% | residual activity [31] 88% | residual activity [32] 100% | residual activity [33] 100% | residual activity [34] 100% | residual activity [35] 93% | residual activity [36] 100% | residual activity [37] 100% | residual activity [38] 99% | residual activity [39] 100% | residual activity [40] 100% | residual activity [41] 100% | residual activity [42] 72% | residual activity [43] 79% | residual activity [44] 100% | residual activity [45] 100%

CN([C@@H]1CCc2c(CC(=O)O)c3ccccc3n2C1)S(=O)(=O)c1ccc(F)cc1 [MK-7246]
inactive: residual activity [1] 87% | residual activity [2] 100% | residual activity [3] 100% | residual activity [4] 95% | residual activity [5] 100% | residual activity [6] 100% | residual activity [7] 100% | residual activity [8] 99% | residual activity [9] 100% | residual activity [10] 100% | residual activity [11] 78% | residual activity [12] 80% | residual activity [13] 100% | residual activity [14] 100% | residual activity [15] 100% | residual activity [16] 100% | residual activity [17] 96% | residual activity [18] 93% | residual activity [19] 100% | inhibition [20] 1.94% | residual activity [21] 93% | inhibition [22] 12.3% | residual activity [23] 100% | residual activity [24] 100% | inhibition [25] -6.57% | residual activity [26] 62% | residual activity [27] 99% | residual activity [28] 100% | residual activity [29] 100% | residual activity [30] 100% | residual activity [31] 100% | residual activity [32] 100% | residual activity [33] 100% | residual activity [34] 100% | residual activity [35] 74% | residual activity [36] 100% | residual activity [37] 100% | residual activity [38] 94% | residual activity [39] 95% | residual activity [40] 100% | residual activity [41] 100% | residual activity [42] 79% | residual activity [43] 98% | residual activity [44] 88% | residual activity [45] 100%
